25 compounds from patent US8329904B2, “Azacyclic derivatives” (Hoffmann-La Roche Inc., priority 2009, dated 2012) can be followed below.

The experiment deals with T1, human HSL (Homo sapiens, UniProt Q05469).
T1 construct: overlapping PCR to generate a full length human HSL ORF with a 3′-His6 tag; His6 (C); made in house; host or cells: High 5 insect cells (baculovirus, pFast-BAC)
T1 sequence (Q05469 1-1076): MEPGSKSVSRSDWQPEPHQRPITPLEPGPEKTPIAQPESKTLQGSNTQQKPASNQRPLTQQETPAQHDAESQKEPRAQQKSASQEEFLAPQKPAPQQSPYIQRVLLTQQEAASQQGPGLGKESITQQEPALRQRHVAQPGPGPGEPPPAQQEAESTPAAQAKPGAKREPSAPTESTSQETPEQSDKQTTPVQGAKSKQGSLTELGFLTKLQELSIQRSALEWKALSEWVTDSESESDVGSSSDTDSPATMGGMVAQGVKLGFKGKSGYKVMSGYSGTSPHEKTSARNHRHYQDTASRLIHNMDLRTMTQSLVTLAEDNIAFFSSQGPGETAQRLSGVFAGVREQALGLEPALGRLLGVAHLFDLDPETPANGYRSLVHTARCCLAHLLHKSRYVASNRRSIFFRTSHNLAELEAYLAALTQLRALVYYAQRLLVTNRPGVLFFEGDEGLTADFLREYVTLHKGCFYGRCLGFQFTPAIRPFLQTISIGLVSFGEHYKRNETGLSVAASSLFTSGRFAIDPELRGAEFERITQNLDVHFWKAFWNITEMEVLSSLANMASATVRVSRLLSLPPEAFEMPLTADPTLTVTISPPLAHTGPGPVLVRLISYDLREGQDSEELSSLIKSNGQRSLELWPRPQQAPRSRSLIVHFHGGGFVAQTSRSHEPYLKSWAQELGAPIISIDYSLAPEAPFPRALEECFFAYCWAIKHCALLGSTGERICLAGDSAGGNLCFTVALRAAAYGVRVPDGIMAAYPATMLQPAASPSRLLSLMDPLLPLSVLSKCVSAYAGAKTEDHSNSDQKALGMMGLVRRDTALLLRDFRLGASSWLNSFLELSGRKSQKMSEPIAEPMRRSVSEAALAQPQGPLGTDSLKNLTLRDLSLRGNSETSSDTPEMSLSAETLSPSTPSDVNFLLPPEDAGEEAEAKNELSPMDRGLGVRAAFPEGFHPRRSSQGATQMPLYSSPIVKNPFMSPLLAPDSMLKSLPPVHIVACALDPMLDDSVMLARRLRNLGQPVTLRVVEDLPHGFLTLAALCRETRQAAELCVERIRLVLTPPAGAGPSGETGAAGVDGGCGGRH
The experiment can be described thus: Human Hormone-Sensitive Lipase (HSL) Enzyme Inhibition Assay. The experiment is classed as biochemical. The conditions noted are these: colorimetric assay, 2,3-dimercapto-1-propanol tributyrate (DMPT) substrate, 37° C. for 20 minutes, absorbance at 405 nm; read-out: HSL hum IC50. The essentials:
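Colorimetric thioester hydrolysis: compounds in DMSO series mixed with DMPT (1.5 mM) in MOPS pH 7.2 with BSA, then baculovirus-expressed His6-tagged full-length human HSL added, 37° C, 20 min. DTNB plus detergents added, 15 min room temperature, absorbance at 405 nm.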
Turning to `CCc1ccc(N2CCC3(CCN(S(=O)(=O)CCC(F)(F)F)CC3)C2=O)cc1` [Example 30, 2-(4-Ethyl-phenyl)-8-(3,3,3-trifluoro-propane-1-sulfonyl)-2,8-diaza-spiro[4.5]decan-1-one], the IC50 stood at 360 nM.

Turning to `CS(=O)(=O)c1ccc(N2CCC3(CCN(S(=O)(=O)c4ccccc4Cl)CC3)C2=O)cc1` [Example 140, 8-(2-Chloro-benzenesulfonyl)-2-(4-methanesulfonyl-phenyl)-2,8-diaza-spiro[4.5]decan-1-one], the IC50 was 40 nM.

Consider `CCc1ccc(N2CCC3(CCN(C(=O)N4CCCCC4)CC3)C2=O)cc1` [Example 255, 2-(4-Ethyl-phenyl)-8-(piperidine-1-carbonyl)-2,8-diaza-spiro[4.5]decan-1-one], for which the half-inhibitory concentration (IC50) was found to be 180 nM.

`COCCCc1ccc(N2CCC3(CCN(S(=O)(=O)c4ccccc4OC(F)(F)F)CC3)C2=O)cc1` [Example 146, 2-[4-(3-Methoxy-propyl)-phenyl]-8-(2-trifluoromethoxy-benzenesulfonyl)-2,8-diaza-spiro[4.5]decan-1-one]: the IC50 stood at 50 nM.

On to `O=C1N(c2ccc(C(O)CF)cc2)CCC12CCN(S(=O)(=O)c1ccccc1C(F)(F)F)CC2` (stereo not shown) [Example 173, 2-(4-(2-fluoro-1-hydroxyethyl)phenyl)-8-(2-(trifluoromethyl)phenylsulfonyl)-2,8-diazaspiro[4.5]decan-1-one], for which the concentration for half-maximal inhibition (IC50) stood at 140 nM.

Consider `CSc1ccc(N2CCC3(CCN(S(=O)(=O)c4ccccc4Cl)CC3)C2=O)cc1` [Example 34, 8-(2-Chloro-benzenesulfonyl)-2-(4-methylsulfanyl-phenyl)-2,8-diaza-spiro[4.5]decan-1-one], for which the IC50 stood at 100 nM.

In the case of `CS(=O)(=O)Oc1ccc(N2CCC3(CCN(S(=O)(=O)c4ccc(F)cc4C(F)(F)F)CC3)C2=O)cc1` [Example 83, Methanesulfonic acid 4-[8-(4-fluoro-2-trifluoromethyl-benzenesulfonyl)-1-oxo-2,8-diaza-spiro[4.5]dec-2-yl]-phenyl ester], the concentration for half-maximal inhibition (IC50) was 40 nM.

As for `O=C1N(c2ccc(OS(=O)(=O)C3CC3)cc2)CCC12CCN(S(=O)(=O)c1ccccc1OC(F)(F)F)CC2` [Example 80, Cyclopropanesulfonic acid 4-[1-oxo-8-(2-trifluoromethoxy-benzenesulfonyl)-2,8-diaza-spiro[4.5]dec-2-yl]-phenyl ester], the 50% inhibitory concentration (IC50) was 50 nM.

Consider `O=C1N(c2ccc(C3CC3)cc2)CCC12CCN(S(=O)(=O)Cc1ccccc1)CC2` [Example 38, 2-(4-Cyclopropyl-phenyl)-8-phenylmethanesulfonyl-2,8-diaza-spiro[4.5]decan-1-one], for which the concentration for half-maximal inhibition (IC50) was 60 nM.

On to `CC(C)Oc1ccc(N2CCC3(CCN(S(=O)(=O)CC4CCC4)CC3)C2=O)cc1` [Example 92, 8-Cyclobutylmethanesulfonyl-2-(4-isopropoxy-phenyl)-2,8-diaza-spiro[4.5]decan-1-one], for which the IC50 amounted to 170 nM.

In the case of `CC(C)CS(=O)(=O)N1CCC2(CCN(c3ccc(OC(C)C)cc3)C2=O)CC1` [Example 23, 2-(4-Isopropoxy-phenyl)-8-(2-methyl-propane-1-sulfonyl)-2,8-diaza-spiro[4.5]decan-1-one], the IC50 came out at 160 nM.

As to `CCCCN(C)C(=O)N1CCC2(CC1)CCN(c1ccc(OC(F)(F)F)cc1)C2=O` [Example 269, 1-Oxo-2-(4-trifluoromethoxy-phenyl)-2,8-diaza-spiro[4.5]decane-8-carboxylic acid butyl-methyl-amide], the IC50 came to 70 nM.

As to `CC1CCCCN1C(=O)N1CCC2(CC1)CCN(c1ccc(OC(F)(F)F)cc1)C2=O` (stereo not shown) [Example 272, 8-(2-Methyl-piperidine-1-carbonyl)-2-(4-trifluoromethoxy-phenyl)-2,8-diaza-spiro[4.5]decan-1-one], the IC50 amounted to 100 nM.

Consider `CC1CCCN1C(=O)N1CCC2(CC1)CCN(c1ccc(OC(F)(F)F)cc1)C2=O` (stereo not shown) [Example 267, 8-(2-Methyl-pyrrolidine-1-carbonyl)-2-(4-trifluoromethoxy-phenyl)-2,8-diaza-spiro[4.5]decan-1-one], for which the IC50 came to 150 nM.

In the case of `CC(C)Oc1ccc(N2CCC3(CCN(S(=O)(=O)N4CCOCC4)CC3)C2=O)cc1` [Example 15, 2-(4-Isopropoxy-phenyl)-8-(morpholine-4-sulfonyl)-2,8-diaza-spiro[4.5]decan-1-one], the IC50 is 360 nM.

Take `CCn1cc2cc(N3CCC4(CCN(S(=O)(=O)c5ccccc5Cl)CC4)C3=O)ccc2n1` [Example 124, 8-(2-Chloro-benzenesulfonyl)-2-(2-ethyl-2H-indazol-5-yl)-2,8-diaza-spiro[4.5]decan-1-one]: the IC50 turned out to be 60 nM.

On to `O=C1N(c2ccc(OC(F)(F)F)cc2)CCC12CCN(S(=O)(=O)c1ccc(F)cc1C(F)(F)F)CC2` [Example 76, 8-(4-Fluoro-2-trifluoromethyl-benzenesulfonyl)-2-(4-trifluoromethoxy-phenyl)-2,8-diaza-spiro[4.5]decan-1-one], for which the IC50 came to 190 nM.

Consider `O=C1N(c2ccc(OC(F)(F)F)cc2)CCC12CCN(S(=O)(=O)c1ccc(Cl)nc1)CC2` [Example 198, 8-(6-Chloro-pyridine-3-sulfonyl)-2-(4-trifluoromethoxy-phenyl)-2,8-diaza-spiro[4.5]decan-1-one], for which the IC50 is 150 nM.

On to `CN(C(=O)N1CCC2(CC1)CCN(c1ccc(OC(F)(F)F)cc1)C2=O)c1cccc(Cl)c1` [Example 302, 1-Oxo-2-(4-trifluoromethoxy-phenyl)-2,8-diaza-spiro[4.5]decane-8-carboxylic acid (3-chloro-phenyl)-methyl-amide], for which the IC50 was 40 nM.

As to `O=C1N(c2ccc(Cc3nnc(C(F)(F)F)o3)cc2)CCC12CCN(S(=O)(=O)c1ccccc1Cl)CC2` [Example 138, 8-(2-Chloro-benzenesulfonyl)-2-[4-(5-trifluoromethyl-[1,3,4]oxadiazol-2-ylmethyl)-phenyl]-2,8-diaza-spiro[4.5]decan-1-one], the half-inhibitory concentration (IC50) was 530 nM.

For the compound `O=C1N(c2ccc3c(c2)OC(F)(F)O3)CCC12CCN(S(=O)(=O)c1ccccc1Cl)CC2` [Example 228, 8-(2-Chloro-benzenesulfonyl)-2-(2,2-difluoro-benzo[1,3]-dioxol-5-yl)-2,8-diaza-spiro[4.5]decan-1-one], the IC50 amounted to 60 nM.

`O=C1N(c2ccc(OCC(F)(F)F)cc2)CCC12CCN(S(=O)(=O)c1cccnc1)CC2` [Example 205, 8-(Pyridine-3-sulfonyl)-2-[4-(2,2,2-trifluoro-ethoxy)-phenyl]-2,8-diaza-spiro[4.5]decan-1-one]: the half-maximal inhibitory concentration (IC50) was found to be 60 nM.

In the case of `CC(C)CS(=O)(=O)N1CCC2(CCN(c3ccc(CC(F)(F)F)cc3)C2=O)CC1` [Example 60, 8-(2-Methyl-propane-1-sulfonyl)-2-[4-(2,2,2-trifluoro-ethyl)-phenyl]-2,8-diaza-spiro[4.5]decan-1-one], the IC50 amounted to 40 nM.

Take `Cn1nccc1S(=O)(=O)N1CCC2(CCN(c3ccc(OC(F)(F)F)cc3)C2=O)CC1` [Example 183, 8-(2-Methyl-2H-pyrazole-3-sulfonyl)-2-(4-trifluoromethoxy-phenyl)-2,8-diaza-spiro[4.5]decan-1-one]: the half-inhibitory concentration (IC50) came out at 40 nM.

As for `CN(C(=O)N1CCC2(CC1)CCN(c1ccc(OC(F)(F)F)cc1)C2=O)c1ccc(Cl)cc1` [Example 300, 1-Oxo-2-(4-trifluoromethoxy-phenyl)-2,8-diaza-spiro[4.5]decane-8-carboxylic acid (4-chloro-phenyl)-methyl-amide], the IC50 worked out at 60 nM.

What is called IC50 is the concentration needed to halve the response being measured.
